Results from US6667025B2 (Mitsubishi Pharma Corporation, priority 1997, dated 2003).

Columns and labels:
[1] = test system: IL-2 mRNA in alloantigen-stimulated splenic T cells; assay: IL-2 mRNA expression in allogeneic mixed lymphocyte culture (PCR); assay type: cell-based, rat; details: 48 hours
Procedure: The housekeeping gene HPRT was used as an internal control in order to compare levels of IL-2 mRNA levels relative to the HPRT mRNA levels, as detailed below.
Allogeneic mixed lymphocyte culture was carried out by using nylon-nonadherent spleen cells of F344 rat (RT1^1v1) as responder cells and the spleen cells of WKAH rat (RT1^k) pretreated with 40 μg/ml of mitomycin C for 30 min as stimulator cells. […] After culturing for 48 hours, the cells were recovered by centrifugation. The expression of IL-2 mRNA in the cells was determined by a polymerase chain reaction (PCR) method.
Total RNA was reverse transcribed in […] of buffer solution containing 10 mmol/L Tris-HCl (pH 8.3),50 mM KCl, 5 mM MgCl2, 1 mM each dNTP (dATP, dGTP, dTTP and dCTP), 60 U RNase inhibitor (Takara Ltd. Tokyo, Japan), 15 U avian myelobalastosis virus reverse transcriptase (Takara Ltd.) and 150 pmol random 9-mers at 30° C. for 10 min and 42° C. for 30 min. Primer sequences for IL-2 and hypoxanthine-guanine phosphoribosyltransferase (HPRT) were taken from the previous report (44).
The length in base pairs of the PCR products of IL-2 and HPRT are 351 and 608 bp respectively. […] Fluorescence intensity of the specific bands was visualized by fluorescence image analyzer (FLUOR IMAGER 575®, Molecular Dynamics).

[2] = test system: popliteal lymph node of (LEW×BN) F1 rats injected with LEW spleen cells; assay: Local GvHR, enlargement of popliteal lymph node; assay type: in vivo, rat
lymphocytes = assay: Numbers of lymphocytes in blood, spleen, mesenteric lymph nodes and Peyer's patches in vivo; design: species or system rat; details: 24 hours
Procedure: FTY720 at 0.1 and 1 mg/kg were administered orally to 6 week-old male F344 rats. At 3, 12, 24 hours after administration, peripheral blood, spleen, mesenteric lymph nodes, and Peyer's patches were removed and the lymphocyte numbers of these tissues were measured by using a flow cytometer, as known in the art (EPICS XL).

[3] = test system: (LEW×BN)F1 recipients injected with LEW spleen cells; assay: Lethal GvHR in cyclophosphamide-pretreated recipients; assay type: in vivo, rat
Procedure: To examine the effect of FTY720 in preventing the lethal GvHR, splenic lymphocytes from LEW donor rats (1×10^8 spleen cells) were injected intravenously into cyclophosphamide-pretreated (LEW×BN)F1 recipients. Cyclophosphamide (Shionogi Co. Ltd; Osaka, Japan) was given at a 200 mg/kg dose.

circulating lymphocytes = assay: Circulating lymphocytes in peripheral blood of monkeys; assay type: in vivo, monkey; details: oral
Source text: In dogs and monkeys, as well as rats, oral administration with FTY720 also decreases the number of circulating lymphocytes in peripheral blood. The reduction of the number of T cells was especially remarkable. Withdrawal of FTY720 treatment recovered the number of lymphocytes in peripheral blood to the normal level within 2 weeks.

## CCCCCCCCc1ccc(CCC(N)(CO)CO)cc1.Cl [FTY720, 2-amino-2[2-(4-octylphenyl)ethyl]propane-1,3-diol hydrochloride]
[1]
  concentration that inhibited IL-2 mRNA expression: > 1000 nM
[2]; local GvHR in rats
  immunosuppressive potency relative to CsA: 30 fold
[2]; oral, local GvHR
  oral dose that significantly inhibited enlargement of popliteal lymph node: ≥ 0.1 mg/kg
lymphocytes; 0.1 mg/kg p.o.
  Number of lymphocytes, Peyer's patches: 551.5 ± 103.5 × 10^4 cells/tissue
  Number of lymphocytes, mesenteric lymph nodes: 421.8 ± 27.4 × 10^5 cells/tissue
  Number of lymphocytes, peripheral blood: 1071.9 ± 59.3 cells/μL
  Number of lymphocytes, spleen: 652.3 ± 31.2 × 10^5 cells/tissue
lymphocytes; 1 mg/kg p.o.
  Number of lymphocytes, Peyer's patches: 628.8 ± 61.1 × 10^4 cells/tissue
  Number of lymphocytes, mesenteric lymph nodes: 434.3 ± 33.2 × 10^5 cells/tissue
  Number of lymphocytes, peripheral blood: 667.2 ± 199.8 cells/μL
  Number of lymphocytes, spleen: 538.0 ± 74.1 × 10^5 cells/tissue
[3]; 0.3 mg/kg, four out of five rats, without GvHR-associated symptoms
  survival of recipient rats: more than 60 days
[3]; oral 0.1 mg/kg for 30 days
  GvHR-associated symptoms: prevented the development of GvHR-associated symptoms
  MST of recipient rats: 50.0 days
Circulating lymphocytes
  number of circulating lymphocytes in peripheral blood: decreases
